Experimental data taken from publication PMC9087011 (Clinical Pharmacology and Therapeutics, 2022).

Assays:
[1] = tested on: SARS‐CoV‐2; conditions: oral administration; cited from earlier work
[2] = tested on: SARS‐CoV‐2 viral replication; conditions: in vitro EC90 adjusted for plasma protein binding; cited from earlier work
[3] = 500 mg single dose, fasted, no ritonavir; individual values (N2=2)
[4] = Overall safety and tolerability; format: in vivo, human; conditions: for Safety and tolerability (overall): SAD, MAD and supratherapeutic cohorts, healthy participants
[5] = tested on: cytochrome P450 3A4 (CYP3A4); conditions: cited from earlier work
[6] = clinical; conditions: human, in vivo

SMILES: CC(C)(C)[C@H](NC(=O)C(F)(F)F)C(=O)N1C[C@H]2[C@@H]([C@H]1C(=O)N[C@H](C#N)C[C@@H]1CCNC1=O)C2(C)C [Nirmatrelvir]
- Effect on pulmonary viral titers [1]: dose‐dependent reduction of pulmonary viral titers
- total plasma EC90 (90% inhibition of SARS‐CoV‐2 viral replication) [2]: 0.292 µg/mL
- AUCinf [3]: 5,450 ng hour/mL
- t ½ [3]: 25.6 h
- Safety and tolerability (overall) [4]: safe and well‐tolerated
- Safety and tolerability (overall) ([4]; listed as nirmatrelvir): no safety concerns were identified
- Changes in laboratory values (≥ grade 2), vital sign or ECG measurements ([4]; with or without ritonavir): No clinically meaningful changes
- Metabolism [5]: primarily metabolized by cytochrome P450 3A4 (CYP3A4)
- Tmax [6]: 1 h
- Cmax ([6]; 150 mg): 668 ng/mL
- Tmax ([6]; 150 mg): 0.634 h
- Cmax ([6]; 500 mg): 674 ng/mL
- Tmax ([6]; 500 mg): 1 h
